From patent US20170334941A1, “2',2'-DIHALO NUCLEOSIDE ANALOGS FOR TREATMENT OF THE FLAVIVIRIDAE FAMILY OF VIRUSES AND CANCER” (COCRYSTAL PHARMA, INC., priority 2014, published 2017)
Like-named read-outs stand apart in the source and are kept apart here.

Experiments:
[1] = test system: Vero cells; assay: Cellular toxicity assay in Vero cells; assay type: cell-based
Procedure: (§1) The toxicity of the compounds was assessed in Vero, human PBM, CEM (human lymphoblastoid), MT-2, and HepG2 cells, as described previously (see Schinazi R. F., Sommadossi J.-P., Saalmann V., Cannon D. L., Xie M.-Y., Hart G. C., Smith G. A. & Hahn E. F. Antimicrob. Agents Chemother. 1990, 34, 1061-67). Cycloheximide was included as positive cytotoxic control, and untreated cells exposed to solvent were included as negative controls. The cytotoxicity IC50 was obtained from the concentration-response curve using the median effective method described previously (see Chou T.-C. & Talalay P. Adv. Enzyme Regul. 1984, 22, 27-55; Belen'kii M. S. & Schinazi R. F. Antiviral Res. 1994, 25, 1-11).

[2] = test system: human PBM cells; assay: Cellular toxicity assay in human PBM cells; assay type: cell-based; details: Human PBM cells
Procedure: as §1

[3] = test system: CEM (human lymphoblastoid) cells; assay: Cellular toxicity assay in CEM cells; assay type: cell-based
Procedure: as §1

[4] = Cellular toxicity assay in Vero cells; assay type: cell-based; details: African green monkey, read-out: Cytotoxicity, CC50
Procedure: as §1

[5] = Cellular toxicity assay in human PBM cells; assay type: cell-based; details: read-out: Cytotoxicity, CC50
Procedure: as §1

[6] = Cellular toxicity assay in CEM cells; assay type: cell-based, human; details: human, read-out: Cytotoxicity, CC50
Procedure: as §1

[7] = test system: HCV GT 1b replicon (Huh-7 cells); assay: HCV replicon assay; assay type: cell-based; details: Hepatitis C virus, GT1B
Procedure: (§2) The HCV replicon assay was carried out as described in Stuyver L et al., Ribonucleoside analogue that blocks replication or bovine viral diarrhea and hepatitis C viruses in culture. Antimicrob. Agents Chemother. 2003, 47, 244-254. Huh 7 Clone B cells containing HCV Replicon RNA were seeded in a 96-well plate at 5000 cells/well, and the compounds tested at 10 μM in triplicate immediately after seeding. Following five days incubation (37° C., 5% CO2), total cellular RNA was isolated by using versaGene RNA purification kit from Gentra. Replicon RNA and an internal control (TaqMan rRNA control reagents, Applied Biosystems) were amplified in a single step multiplex Real Time RT-PCR Assay. The antiviral effectiveness of the compounds was calculated by subtracting the threshold RT-PCR cycle of the test compound from the threshold RT-PCR cycle of the no-drug control (ΔCt HCV). A ACt of 3.3 equals a 1-log reduction (equal to 90% less starting material) in Replicon RNA levels. The cytotoxicity of the compounds was also calculated by using the ΔCt rRNA values. 2′-C-Me-C was used as the positive control. To determine EC90 and IC50 values (using methods described in Reed I J & Muench H, A simple method or estimating fifty percent endpoints. Am. J. Hyg. 27: 497, 1938), ΔCt: values were first converted into fraction of starting material (Applied Biosystems Handbook) and then were used to calculate the % inhibition.

[8] = Cytotoxicity in HCV replicon assay (ΔCt rRNA); assay type: cell-based; details: human, Huh-7 Clone B cells containing HCV GT 1b replicon RNA, Huh-7 cells
Procedure: as §2, with “To determine EC90 and IC50 values (using methods described in Reed I J & Muench H, A simple method or estimating fifty percent endpoints. Am. J. Hyg. 27: 497, 1938), ΔCt: values were first converted into fraction of starting material (Applied Biosystems Handbook) and then were used to calculate the % inhibition.” left out

With `O=c1ccn(C2OC(CO)C(O)C2(Cl)Cl)c(=O)[nH]1` (centres unmarked) [Compound 17] the “% inhibition at maximum concentration evaluated” value (shortened to “% inhibition”) [1] was 1.4%, the CC50 ([1]; read-out: Cytotoxicity, CC50) was greater than 100 µM and the “% inhibition” value [2] was −11%. For the same compound, the CC50 ([2]; read-out: Cytotoxicity, CC50) was greater than 100 µM, the “% inhibition” value [3] was −1.9% and the CC50 ([3]; read-out: Cytotoxicity, CC50) was greater than 100 µM.
With `CC(C)OC(=O)[C@H](C)NP(=O)(OC[C@H]1O[C@@H](n2ccc(=O)[nH]c2=O)C(Cl)(Cl)[C@@H]1O)Oc1ccccc1` (stereo partly drawn) [Compound 18, (2S)-isopropyl 2-(((((2R,3R,5R)-4,4-dichloro-5-(2,4-dioxo-3,4-dihydropyrimidin-1(2H)-yl)-3-hydroxytetrahydrofuran-2-yl)methoxy)(phenoxy)phosphoryl)amino)propanoate] the “% inhibition” value [1] was 2.3%, the CC50 [4] was greater than 100 µM and the “% inhibition” value [2] was 25%. The CC50 ([5]; Human PBM cells) was greater than 100 µM, the “% inhibition” value [3] was 17% and the CC50 [6] was greater than 100 µM.
With `Nc1ccn([C@@H]2O[C@H](CO)[C@@H](O)C2(Cl)Cl)c(=O)n1` [Compound 22, 4-amino-1-((2R,4R,5R)-3,3-dichloro-4-hydroxy-5-(hydroxymethyl)tetrahydrofuran-2-yl)pyrimidin-2(1H)-one] the “% inhibition” value [1] was 101%, the CC50 [4] was less than 1 µM and the “% inhibition” value [2] was 82%. The CC50 ([5]; human, human PBM cells) was less than 1 µM, the EC50 ([7]; HCV GT 1b replicon, Huh-7 cells, read-out: EC50) was greater than 10 µM and the EC90 ([7]; HCV GT 1b replicon, Huh-7 cells, read-out: EC90) was greater than 10 µM. For the same compound, the “% inhibition” value [3] was 87%, the CC50 ([6]; CEM lymphoblastoid cells) was less than 1 µM and the CC50 at 5 days [8] was greater than 10 µM.
For `CC(C)OC(=O)[C@H](C)NP(=O)(OC[C@H]1O[C@@H](n2ccc(N)nc2=O)C(Cl)(Cl)[C@@H]1O)Oc1ccccc1` (stereo partly drawn) [Compound 23, (2S)-isopropyl 2-(((((2R,3R,5R)-5-(4-amino-2-oxopyrimidin-1(2H)-yl)-4,4-dichloro-3-hydroxytetrahydrofuran-2-yl)methoxy)(phenoxy)phosphoryl)amino)propanoate], the “% inhibition” value [1] was 101%, the CC50 [4] was less than 1 µM and the “% inhibition” value [2] was 91%. The CC50 ([5]; Human PBM cells) was less than 1 µM, the EC50 ([7]; Huh-7) was 0.1 to 1 µM and the EC90 ([7]; Huh-7) was 0.1 to 1 µM. For the same compound, the “% inhibition” value [3] was “(−86 @ 100) %” and the CC50 at 5 days [8] was greater than 10 µM.
